Tested on: RNA of Stop-POST5 and 80S.IRES complexes
Test: LASER-seq mutational profiling of AzAt photoincorporation sites
Type: binding, shrimp (Artemia salina)
Conditions: 300 μM AzAt
Method: RNA-Seq procedures employed closely follow those published (Zinshteyn et al., Nucleic Acids Res, 47, 43-55 (2019); McClary et al., Cell Chem Biol, 24, 605-613 e605 (2017)) except as noted.
Library preparation. RNA-seq libraries were prepared for PAL, PRE, UV, and NUL samples, as defined in Results, of Stop-POST5 and 80S.IRES complexes, using published procedures (Zinshteyn et al., Nucleic Acids Res, 47, 43-55 (2019); McClary et al., Cell Chem Biol, 24, 605-613 e605 (2017)) with the slight modifications that a 12% 0.13 M Tris/45 mM Borate/2.5 mM EDTA (pH 7.6))—Urea PAGE gel replaced a 10% PAGE gel and the selected RNA fragment size was 40-70 bp rather than 60-70 bp. In brief, RNA was extracted and randomly fragmentated by ZnCl2 (Sigma). After separation on the TBE-Urea PAGE gel, RNA fragments, visualized by ethidium bromide staining (used for all RNA gels) were sliced and extracted from the gel by crushing the gel and vigorously shaking (1400 rpm) at 70° C. in 400 μL of water for 15 min. The 3′ ends were dephosphorylated by T4 Polynucleotide Kinase (New England Biolab). The miRNA cloning linker 2 (5′App/[…]/3′ddC (SEQ ID NO: 11), Integrated DNA Technologies) was used as the universal 3′ linker and pre-adenylated using the 5′ DNA Adenylation Kit (New England Biolab) with the provided protocol. Reverse transcription, self-circularization, and PCR amplification were performed essentially the same as previously described (McClary et al., Cell Chem Biol, 24, 605-613 e605 (2017)). Library sequencing was performed on Illumina NextSeq with single-end mode for up to 75 bp read length.
Data processing. Sequencing reads were processed by Cutadapt 2.10 (cutadapt.readthedocs.io/en/stable/) to remove 3′ end linkers and then inputted into Shapemapper2 (Busan et al., RNA, 24(2):143-148 (2018)) to count the mutations and effective sequencing reads, using the STAR Aligner mode (Dobin et al., STAR: ultrafast universal RNA-seq aligner. Bioinformatics. 29:15-21 (2013)). The mutation rate of each nucleotide was calculated by dividing the number of the reads containing the mutations by the total number of reads, outputted as N.
For the PAL sample, the mutation rate fold change was calculated by dividing the mutation rate of the PAL sample by the mutation rate of the PRE sample. The average mutation count was calculated by averaging the number of mutations of the PAL and PRE samples. MA plots (FIG. 3A, FIG. 3B, FIG. 3C and FIG. 3D) were charted by plotting the mutation rate fold change of each nucleotide as a function of the average mutation count of each nucleotide. To determine possibly significant sites of AzAt labeling, the dataset was first screened for points that meet the criteria of a mutation rate fold change ≥1.5 and an average mutation count ≥100. Points meeting these criteria were further screened with Z-factor >0 and p-value <0.05 to determine statistical significance. The Z-factor (z) was calculated using the following equation
For each complex LASER-Seq was carried out on four types of samples, denoted PAL, PRE, UV, and NUL. PAL samples were prepared by photoaffinity labeling of complexes with 300 μM AzAt, a concentration close to saturating for photoincorporation (FIG. 2C). PRE samples were prepared using separately prephotolyzed AzAt that was re-irradiated in the presence of complexes. UV and NUL samples were prepared in the absence of AzAt by either subjecting complexes to uv irradiation (UV) or just analyzing complexes directly (NUL).
The sites of modification arising exclusively via nitrene formation on irradiation of AzAt was first identified by the mutation rate fold change of PAL vs. PRE samples, a procedure which corrects for mutation rates arising from noncovalent binding, or covalent photoincorporation of pre-photolyzed AzAt, or uv-induced mutations not related to AzAt (Table 4). The results obtained for the ≥6,006 nucleotides present in these two complexes are presented in FIG. 3A, FIG. 3B, FIG. 3C and FIG. 3D. […]

## [N-]=[N+]=Nc1ccc(-c2nc(-c3cccc(C(=O)O)c3)no2)cc1 [AzAt]
  mutation rate change, 26S-A1437: 1.4 fold
  mutation rate change, 26S-A1438: 1.3 fold
  mutation rate change, IRES-A142: 1.4 fold
  mutation rate change, IRES-G186: 2.0 fold
  mutation rate change, IRES-U177: 2.4 fold
In both complexes
  mutation rate fold-increase PAL vs. PRE, 18S-A1195: ~9 fold

Source: patent US20230235374A1, “High Throughput Assays for Detecting Translation Readthrough Inducers” (The Trustees of the University of Pennsylvania, priority 2021, published 2023)
